Data on four molecules can be found in publication PMC4589779 (Scientific Reports, 2015).

For orientation: viability means a per cent measure of how many cells are alive, often set against a control. Read a high viability as better survival.

Where two headings read alike, the source gives them in different places. Some results are limits rather than exact numbers.

The target in data set [1] is T1, FXR-LBD protein (residues 244–472) (Homo sapiens, UniProt Q96RI1).
T1 sequence (Q96RI1 244-472 isoform Q96RI1-2): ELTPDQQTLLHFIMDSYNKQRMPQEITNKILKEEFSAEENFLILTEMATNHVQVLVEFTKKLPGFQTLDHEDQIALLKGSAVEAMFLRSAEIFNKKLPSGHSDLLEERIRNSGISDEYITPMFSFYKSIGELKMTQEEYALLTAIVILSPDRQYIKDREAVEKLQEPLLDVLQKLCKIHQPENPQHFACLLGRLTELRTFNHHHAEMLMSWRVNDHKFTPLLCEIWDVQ
An excerpt: The thermal shift method is widely used to assess ligand binding. A thermal shift assay usually measures the melting temperature of a protein with or without a ligand by monitoring a fluorescent dye. In an aqueous solution of folded protein the dye signal is low due to quenching of the dye fluorescence in water, but with increasing temperature the protein unfolds and exposes its hydrophobic core regions. The fluorescent dye is then bound to the hydrophobic surfaces and fluorescence increases.
Thermal Shift assay was performed in clear 96-well plates (Invitrogen) using SYPRO Orange (Invitrogen Darmstadt, Germany) as dye. […] Temperature-dependent fluorescence increase reporting protein denaturation was measured in duplicates in an ICycler (Bio-Rad) from 20 to 90 °C in steps of 0.2 °C per minute at […] and 570 nm emission wavelength. Each experiment was independently repeated four times. The first derivative of the melting curves was calculated using the Graph Pad Prism 5 software.

In data set [2] the test system is HEK293T cells. Nature of the data set: Cell proliferation assay (WST-1) in HEK293T cells. The data set is classed as cell-based. The following applies: for anti-proliferative effect in combination with CDCA: 24 h, NSAIDs 5, 25, 50 μM combined with CDCA (50 μM); for toxicity compared with HepG2 cells: 48 h. On the procedure:
(§1) WST-1 assay (Roche Diagnostics International AG, Rotkreuz, Switzerland) was performed according to manufacturer’s protocol. In brief, HepG2 cells were seeded in DMEM high glucose, supplemented with sodium pyruvate (1 mM), penicillin (100 U/mL), streptomycin (100 μg/mL) and 10% FCS in 96-well plates (3 · 10^4 cells/well). HEK293T cells were seeded in DMEM high glucose, supplemented with sodium pyruvate (1 mM), penicillin (100 U/mL), streptomycin (100 μg/mL) and 10% FCS in 96-well plates (2,5 · 10^4 cells/well). After 24 h, medium was changed to DMEM high glucose, supplemented with penicillin (100 U/mL), streptomycin (100 μg/mL) and 1% charcoal stripped FCS and cells were incubated with varying concentrations of test compounds, Revlotron (100 μM) as positive control and DMEM/0,1% DMSO as negative control. […] […] After 45 min incubation, absorption (450 nm/reference: 620 nm) was determined with a Tecan Infinite M200 luminometer (Tecan Deutschland GmbH). Each experiment was repeated at least four times in triplicates.
For orientation: Tetrazolium dyes change colour on reduction, which living cells bring about.

For data set [3], the system named is bile salt export protein (BSEP) mRNA. How it is done:
(§2) Quantification of the expression of FXR target genes in non-transfected cells offers the least artificial way to characterize the activity of a FXR ligand in vitro. […] As investigated genes we selected the direct FXR target genes bile salt export protein (BSEP) and small hetero-dimer partner (SHP) which allows a specific conclusion whether a FXR-dependent effect is present. […] We then quantified the mRNA of FXR target genes BSEP and SHP by qRT-PCR.
(§3) HepG2 cells were seeded in DMEM high glucose, supplemented with 10% FCS, SP (1 mM), penicillin (100 U/mL) and streptomycin (100 μg/mL) at 37 °C and 5% CO2 in 6-well plates (2 · 10^6 per well). 24 h after seeding, medium was changed to MEM, supplemented with 1% charcoal-stripped FCS, penicillin (100 U/mL), streptomycin (100 μg/mL) and L-glutamine (2 mM). After additional 24 h, medium was changed again to MEM, now additionally containing 0.1% DMSO and the respective test compounds or 0.1% DMSO alone as untreated control. Cells were incubated with the test compounds for 6 h, harvested, washed with cold phosphate buffered saline (PBS) and then directly used for RNA extraction.
Total RNA was extracted from HepG2 cells by the Total RNA Mini Kit (R6834-02, Omega Bio-Tek, Inc., Norcross, GA, USA). RNA was reverse-transcribed into cDNA using the High-Capacity cDNA Reverse Transcription Kit (4368814, Thermo Fischer Scientific, Inc., Waltham, MA, USA) with 2 μg RNA according to the manufacturer’s protocol.
FXR target gene expression was evaluated by quantitative PCR analysis with a StepOnePlusTM System (Life Technologies) using PowerSYBRGreen (Life Technologies; 12.5 μL per well) and the following primers[17] (300 nM each): SHP: 5′-[…] (forward) and 5′-[…] (reverse); BSEP: 5′-[…] (forward) and 5′-[…] (reverse). Results were normalized to GAPDH Ct values. Sequences of the GAPDH primers were as follows: 5′-[…] (forward) and 5′- […] (reverse). Each sample was set up in duplicates and repeated in at least four independent experiments. The expression was quantified by the comparative ΔΔCt method.

Data set [4] concerns the target T2, fusion receptor of the FXR ligand binding domain and a Gal4 DNA binding domain (Homo sapiens, UniProt Q96RI1).
T2 sequence (Q96RI1 262-486 limits assumed): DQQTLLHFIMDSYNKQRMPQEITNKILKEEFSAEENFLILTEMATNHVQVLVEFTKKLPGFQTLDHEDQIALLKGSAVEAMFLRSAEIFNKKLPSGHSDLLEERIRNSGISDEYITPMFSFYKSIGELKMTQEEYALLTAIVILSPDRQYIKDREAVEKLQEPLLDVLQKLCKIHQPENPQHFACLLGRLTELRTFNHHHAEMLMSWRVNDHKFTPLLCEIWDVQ
On the procedure:
Luminescence was measured with an Infinite M200 luminometer (Tecan Deutschland GmbH). […] Fold activation was obtained by dividing the mean RLU of a test compound at a respective concentration by the mean RLU of untreated control.

Data set [5] relates to HepG2 cells. Nature of the data set: Cell proliferation assay (WST-1) in HepG2 cells. The following applies: for effect on cell viability: 6 hours, 25 μM NSAID and CDCA (50 μM); for concentrations that are considerably toxic: summing up of the WST-1 toxicity data (HepG2 and HEK293T); for no toxic effect on cell viability up to (concentration): 6 hours incubation, alone or in combination with CDCA (50 μM). On the procedure:
as §1

Data set [6] is described as follows: Cell proliferation assay (WST-1) in HepG2 cells. As to conditions: human, HepG2 cells. How it is done: as §1
For data set [7], the system named is small hetero-dimer partner (SHP) mRNA. Nature of the data set: FXR target gene quantification by qRT-PCR in HepG2 cells: SHP. Format: cell-based. How it is done: as §2
as §3, with “extraction. […]” for “extraction.”
FXR target gene expression was evaluated by quantitative PCR analysis with a StepOnePlusTM System (Life Technologies) using PowerSYBRGreen (Life Technologies; 12.5 μL per well) and the following primers[17] […] The expression was quantified by the comparative ΔΔCt method.
In general terms: In qPCR the cycle at which signal appears reflects the starting amount.

The target in data set [8] is T3, FXR (Homo sapiens, UniProt Q96RI1).
T3 construct: is based on the complete FXR receptor (CMV promoter); expressed in transfected cells; host or cells: HeLa
T3 sequence (Q96RI1 1-486): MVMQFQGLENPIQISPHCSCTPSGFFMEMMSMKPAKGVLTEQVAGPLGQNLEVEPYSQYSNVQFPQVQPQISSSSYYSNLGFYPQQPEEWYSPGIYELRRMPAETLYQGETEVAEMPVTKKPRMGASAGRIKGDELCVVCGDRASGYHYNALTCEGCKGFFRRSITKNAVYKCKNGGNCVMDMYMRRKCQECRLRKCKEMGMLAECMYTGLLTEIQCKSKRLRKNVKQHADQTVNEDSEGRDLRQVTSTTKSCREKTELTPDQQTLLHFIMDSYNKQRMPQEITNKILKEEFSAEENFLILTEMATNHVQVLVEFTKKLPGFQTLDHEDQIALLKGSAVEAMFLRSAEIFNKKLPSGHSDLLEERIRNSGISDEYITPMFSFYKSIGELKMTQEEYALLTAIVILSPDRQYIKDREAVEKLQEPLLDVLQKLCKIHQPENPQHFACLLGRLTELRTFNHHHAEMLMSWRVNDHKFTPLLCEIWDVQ
T3 sequence (P19793 1-462 partner): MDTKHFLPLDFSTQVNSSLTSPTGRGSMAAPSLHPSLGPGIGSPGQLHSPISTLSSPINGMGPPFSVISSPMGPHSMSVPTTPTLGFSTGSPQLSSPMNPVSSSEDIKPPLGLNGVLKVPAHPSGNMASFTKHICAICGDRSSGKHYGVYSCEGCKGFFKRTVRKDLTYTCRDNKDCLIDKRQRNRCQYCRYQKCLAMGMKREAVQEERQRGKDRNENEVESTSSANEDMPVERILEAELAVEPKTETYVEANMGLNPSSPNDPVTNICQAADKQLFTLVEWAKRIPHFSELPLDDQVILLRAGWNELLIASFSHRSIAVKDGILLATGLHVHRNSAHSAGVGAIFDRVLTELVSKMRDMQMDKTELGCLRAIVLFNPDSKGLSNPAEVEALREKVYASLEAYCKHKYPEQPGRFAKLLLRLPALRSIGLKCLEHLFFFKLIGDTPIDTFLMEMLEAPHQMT
The data set is described as follows: Full-length FXR reporter gene assay in HeLa cells (BSEP promotor, RXRα). The data set is classed as cell-based. On the procedure:
Luminescence was measured with a Tecan Infinite M200 luminometer (Tecan Deutschland GmbH, Crailsheim, Germany). […] Fold activation was obtained by dividing the mean RLU of the tested compound at a respective concentration by the mean RLU of untreated control.
A general note: A reporter such as luciferase makes a cellular process visible.

Data set [9] concerns CYP7A1 mRNA. Also noted: method as in PMID 25631039. The following applies: HepG2 cells, with 50 μM CDCA; cited from earlier work.
Where [10] appears, read: 10 or 30 μM in competition with GW4064 (3 μM), OCA (3 μM) and CDCA (20 μM).

On to `CC(C)c1onc(-c2c(Cl)cccc2Cl)c1COc1ccc(/C=C/c2cccc(C(=O)O)c2)c(Cl)c1` [GW4064], for which the “concentrations that robustly stabilize the FXR-LBD” value in data set [1] (5 μM FXR-LBD, ratio to protein ≥20:1) is no less than 100 µM.

For the molecule `O=C(O)Cc1ccccc1Nc1c(Cl)cccc1Cl` [diclofenac, diclofenac sodium], in data set [2], the “anti-proliferative effect in combination with CDCA” value (“anti-proliferative effect” for short) is recorded as “considerable anti-proliferative effects” and the “toxicity compared with HepG2 cells” value is “even higher toxicity”. The “effect on BSEP expression” value in data set [3] is reported as “did not affect the expression”. Also, the “activity of the control gene (renilla luciferase)” value in [4] is recorded as “toxicity driven decrease”. Besides, in data set [4] (10 or 30 μM alone), the agonistic activity result is “None”. Also, in data set [4] (setting [10]), the competitive antagonistic activity entry is given as “None”. Besides, the “effect on cell viability” value in data set [5] (HepG2 cells) is on record as “did not affect cell viability”. Moreover, the “concentrations with anti-proliferative activity / slight toxicity” value in data set [5] (HepG2 cells, 48 h) was no less than 10 µM. The “concentrations that are considerably toxic” value in data set [5] was no less than 30 µM. For the same molecule, in data set [6], the viability at 6 h, 30 μM is 85 ± 2% and the viability at 6 h, 50 μM stood at 75 ± 2%. In [7] (25 μM and 50 μM in competition with CDCA (50 μM), 6 h), the “antagonistic effect on SHP expression” value is listed as “did not observe any antagonistic effect”. Besides, the “effect on SHP expression” value in data set [7] (50 μM alone, 6 h incubation) is listed as “did not affect the expression”. In addition, in [8] (10 or 30 μM alone), the agonistic activity entry is listed as “None”. Besides, the competitive antagonistic activity entry in data set [8] (setting [10]) is “None”. Further, the “stabilization of the FXR-LBD” value in data set [1] (500 μM alone, ratio to protein 100:1) was “did not stabilize the FXR-LBD”. Further, the “antagonism of the stabilization of the FXR-LBD by GW4064” value in data set [1] (500 μM in competition with GW4064 (100 μM, ratio 20:1)) was “did not antagonize the stabilization”.

As for `CC(C)Cc1ccc(C(C)C(=O)O)cc1` (centres unmarked) [ibuprofen], in [2], the “anti-proliferative effect” value is on record as “considerable anti-proliferative effects”. Besides, in data set [5] (HepG2 cells), the “no toxic effect on cell viability up to (concentration)” value is listed as “up to 100 μM” and the “effect on cell viability” value is listed as “did not affect cell viability”. Also, the “no toxicity up to (concentration)” value in data set [5] (HepG2 cells, 48 h) was “up to 50 μM”. In addition, the “induction of CYP7A1 expression (increase in mRNA levels)” value in data set [9] is recorded as 1.7 fold.

On to `COc1ccc2c(c1)c(CC(=O)O)c(C)n2C(=O)c1ccc(Cl)cc1` [indometacin], for which, in data set [2], the “anti-proliferative effect” value was “considerable anti-proliferative effects” and the “toxicity compared with HepG2 cells” value was “even higher toxicity”. In data set [3] (HepG2 cells, 25 μM and 50 μM in competition with CDCA (50 μM), 6 h), the “antagonistic effect on BSEP expression” value is “did not observe any antagonistic effect”. Moreover, the “effect on BSEP expression” value in data set [3] (HepG2 cells, 50 μM alone, 6 h incubation) was “did not affect the expression”. Besides, in [5] (HepG2 cells), the “no toxic effect on cell viability up to (concentration)” value is “up to 50 μM” and the “effect on cell viability” value was “did not affect cell viability”. Also, the “concentrations with anti-proliferative activity / slight toxicity” value in data set [5] (human, 48 h) is no less than 10 µM. The “concentrations that are considerably toxic” value in [5] is no less than 30 µM. In addition, the “induction of CYP7A1 expression (increase in mRNA levels)” value in data set [9] is listed as 9 fold.
